These results are taken from patent US20110009628A1, “Compounds and Compositions for Modulating Lipid Levels and Methods of Preparing Same” (priority 2009, published 2011).

Assay type in all cases: cell-based, human
For test [1], the system named is LDLR mRNA expression in HepG2 cells. Briefly: LDLR mRNA expression in HepG2 cells, quantitative real-time RT-PCR (Example 12). As to conditions: 24 hours; for fold induction at 10 µM / fold induction at 40 µM: Homo sapiens; for fold induction at 10 µM: read-out: Activity on LDLR mRNA at 10 uM (fold of control); for fold induction at 40 µM: read-out: Activity on LDLR mRNA at 40 uM (fold of control). The protocol: (§1) The effects of compounds on the mRNA expressions of LDLR and PCSK9 were examined using quantitative real-time RT-PCR assays. HepG2 cells were treated with various compounds at 10 and 40 uM concentrations for 24 hours. Total RNA was isolated and […] was used to generate cDNA in a reaction containing random primers and M-MLV at 37° C. for 1 h in a volume of 25 μL. Real-time PCR was performed on the cDNA using MCEP REALPLEX 2 SYSTEM (Eppendorf) and Universal MasterMix (Applied Biosystems). Human LDLR, PCSK9, and GAPDH Pre-Developed TaqMan Assay Reagents (Applied Biosystems) were used to assess the levels of mRNA expressions in HepG2. The levels of LDLR and PCSK9 mRNA were normalized to that of GAPDH. Each RNA samples was assayed in duplicate. The fold activity was calculated by dividing mRNA abundance in compound treated cells with that of control.
Background: Quantitative PCR measures a nucleic acid by following its amplification.

Test [2] has as its system LDL ligand uptake activity in HepG2 cells. The test can be described thus: DiI-LDL uptake in HepG2 cells (Example 12). The protocol: The combined beneficial effects of these novel compounds on elevation of LDLR mRNA levels likely through the mechanism of mRNA stabilization and their inhibitory activity towards PCSK9, the secreted protease that degrades LDLR protein, result in strong increases in LDL ligand uptake activity through increased receptor surface abundance. […] Briefly, HepG2 cells (2×10^5 cells/well) in 24-well culture plates were treated with various compounds at 10 and 40 uM concentrations for 20 hours. The fluorescent 1.1′-dioctadecyl-3,3,3′,3′-tetramethylindocarbocyanin perchlorate (DiI-LDL) (Biomedical Technologies, Stoughton, Mass.) at a concentration of 2 μg/ml was added to cells at the end of treatment. After 4 hours, the medium was removed; cells were washed with cold PBS, and were examined immediately under a fluorescent microscope (Nikon) at 200× amplification. The fluorescent intensity in compound-treated cells was compared to that in untreated control cells. […]

The test system of test [3] is PCSK9 mRNA expression in HepG2 cells. The test can be described thus: PCSK9 mRNA expression in HepG2 cells, quantitative real-time RT-PCR (Example 12). Conditions: 24 hours. The protocol:
as §1

For test [4], the system named is LDLR mRNA expression in HepG2 cells. The test can be described thus: LDLR mRNA expression in HepG2 cells, quantitative real-time RT-PCR (Example 7). Conditions: dose less than or equal to 10 μM, 24 hours. Here is the method:
In yet another experiment, HepG2 cells were treated with various compounds for 24 hours at the indicated doses. Total RNA was isolated and 2 μg was used to generate cDNA in a reaction containing random primers and M-MLV at 37° C. for 1 hour in a volume of 25 μL. Real-time PCR was performed on the cDNA using MCEP REALPLEX 2 SYSTEM (Eppendorf) and Universal MasterMix (Applied Biosystems). Human LDLR and GAPDH Pre-Developed TaqMan Assay Reagents (Applied Biosystems) were used to assess the levels of mRNA expressions in HepG2. The levels of LDLR mRNA were normalized to that of GAPDH. Each RNA samples was assayed in triplicate. The abundance of LDLR mRNA in untreated cells was defined as 1, and the amounts of LDLR mRNA from compound-treated cells were plotted relative to that value in FIG. 2B. The data shown are mean±s.d.
Activities of some compounds of Formulas I, II and EE on LDLR mRNA expression were determined. HepG2 cells were treated with new compounds individually at a dose less than or equal to 10 μM for 24 hours. […] In these experiments, berberine chloride was included for comparison.

Where [5] appears, read: 10 uM, 20 hours (first symbol of cell).
The mark [6] stands for this setting: 40 uM, 20 hours (second symbol of cell).

Regarding `COc1cc2c(cc1OCCO)CCN1Cc3c(ccc(OC)c3OS(=O)(=O)c3ccccc3)CC21` (centres unmarked) [Compound 138, 3-(2-Hydroxyethoxy)-2,10-dimethoxy-5,6,7,8,13,13a-hexahydroisoquinolino[2,1-b]isoquinolin-9-yl benzenesulfonate], in test [1] (10 uM), the fold induction at 10 µM was 1.6 ± 0.29. Besides, the fold induction at 40 µM in test [1] (40 uM) came out at 2.45 ± 0.2. Moreover, in test [2] (setting [5]), the “Activity in LDL uptake (relative to control)” value is on record as “+”. Besides, the “Activity in LDL uptake (relative to control)” value in test [2] (setting [6]) is “+++”. In test [3], the “PCSK9 mRNA level at 10 uM (fold of control)” value is reported as 0.63 ± 0.14 fold of control and the “Activity on PCSK9 mRNA reduction at 40 uM (fold of control)” value was 0.35 ± 0.02 fold of control.
With `COc1ccc2c(c1OS(=O)(=O)c1ccccc1)CN1CCc3cc(OCCO)ccc3C1C2` (centres unmarked) [Compound 142, 3-(2-Hydroxyethoxy)-10-methoxy-5,6,7,8,13,13a-hexahydroisoquinolino[2,1-b]isoquinolin-9-yl benzenesulfonate], the fold induction at 10 µM in test [1] (10 uM) was determined as 2.64 ± 0.01. Also, the fold induction at 40 µM in test [1] (40 uM) turned out to be 13 ± 1.96. The “Activity in LDL uptake (relative to control)” value in test [2] (setting [5]) was “+”. Besides, the “Activity in LDL uptake (relative to control)” value in test [2] (setting [6]) is reported as “++”. Also, in test [3], the “PCSK9 mRNA level at 10 uM (fold of control)” value is 0.62 ± 0.07 fold of control and the “Activity on PCSK9 mRNA reduction at 40 uM (fold of control)” value was 0.52 ± 0.02 fold of control.
With `COc1ccc2c(c1)CCN1Cc3c(ccc(OC)c3OS(=O)(=O)c3ccccc3)C(C)C21` (centres unmarked) [Compound 140, 3,10-Dimethoxy-13-methyl-5,6,7,8,13,13a-hexahydro isoquinolino[2,1-b]isoquinolin-9-yl benzenesulfonate], the fold induction at 10 µM in test [1] (10 uM) is 6.65 ± 0.68. In addition, the fold induction at 40 µM in test [1] (40 uM) was 8.6 ± 2. The “Activity in LDL uptake (relative to control)” value in test [2] (setting [5]) was “++/++”. Moreover, in test [2] (setting [6]), the “Activity in LDL uptake (relative to control)” value is listed as “++/++”. Moreover, in test [3], the “PCSK9 mRNA level at 10 uM (fold of control)” value is given as 0.43 ± 0.08 fold of control and the “Activity on PCSK9 mRNA reduction at 40 uM (fold of control)” value is on record as 0.51 ± 0.08 fold of control.
For `COc1cc2c(cc1C(=O)O)C1Cc3ccc(OC)c(OS(=O)(=O)c4ccccc4)c3CN1CC2` (centres unmarked) [Compound 135, 3,10-Dimethoxy-9-(phenylsulfonyloxy)-5,6,7,8,13,13a-hexahydro isoquinolino[3,2-a]isoquinoline-2-carboxylic acid], in test [1] (10 uM), the fold induction at 10 µM is 1.72 ± 0.13. The fold induction at 40 µM in test [1] (40 uM) was 1.86. Also, in test [2] (setting [6]), the “Activity in LDL uptake (relative to control)” value is “+”. In test [3], the “PCSK9 mRNA level at 10 uM (fold of control)” value is listed as 0.97 ± 0.04 fold of control and the “Activity on PCSK9 mRNA reduction at 40 uM (fold of control)” value is on record as 1.10 ± 0.14 fold of control.
For the compound `COc1ccc2c(c1OS(=O)(=O)c1ccccc1)CN1CCc3cc4c(cc3C1C2)OCCO4` (centres unmarked) [Compound 115, 11-Methoxy-6,7,8,9,14,14a-hexahydro-2H,3H-1,4-dioxano[5,6-g]isoquinolino[3,2-a]isoquinolin-10-yl benzenesulfonate], the “Activity on LDLR mRNA at 10 uM (fold of control)” value in test [1] (10 uM) is given as 0.51 ± 0.11 fold of control. For the same compound, the “Activity on LDLR mRNA at 40 uM (fold of control)” value in test [1] (40 uM) was 2.65 ± 0.06 fold of control. The “Activity in LDL uptake (relative to control)” value in test [2] (setting [6]) is “+++”.
Consider `COc1ccc2c(c1)CCN1Cc3c(O)cccc3CC21` (centres unmarked) [Compound 151, 3-methoxy-5,6,7,8,13,13a-hexahydroisoquinolino[2,1-b]isoquinolin-9-ol], for which, in test [2] (setting [6]), the “Activity in LDL uptake (relative to control)” value was “+”.
On to `COc1cc2c(cc1CO)C1Cc3ccc(OC)c(OS(=O)(=O)c4ccccc4)c3CN1CC2` (centres unmarked) [Compound 132, 2-(Hydroxymethyl)-3,10-dimethoxy-5,6,7,8,13,13a-hexahydro isoquinolino[2,1-b]isoquinolin-9-yl benzenesulfonate], for which, in test [1] (10 uM), the fold induction at 10 µM is 2.33 ± 0.04. The fold induction at 40 µM in test [1] (40 uM) stood at 6.62 ± 0.9. The “Activity in LDL uptake (relative to control)” value in test [2] (setting [5]) was “++”. The “Activity in LDL uptake (relative to control)” value in test [2] (setting [6]) is recorded as “+”. In test [3], the “PCSK9 mRNA level at 10 uM (fold of control)” value is reported as 1.85 ± 0.12 fold of control and the “Activity on PCSK9 mRNA reduction at 40 uM (fold of control)” value is given as 0.73 ± 0.15 fold of control.
As to `COC(=O)c1cc2c(cc1OC)CCN1Cc3c(ccc(OC)c3OS(=O)(=O)c3ccccc3)CC21` (centres unmarked) [Compound 131, Methyl 3,10-dimethoxy-9-(phenylsulfonyloxy)-5,6,7,8,13,13a-hexahydroisoquinolino[3,2-a]isoquinoline-2-carboxylate], the fold induction at 10 µM in test [1] (10 uM) came to 0.67 ± 0.05. For the same compound, in test [1] (40 uM), the fold induction at 40 µM is 2.25 ± 0.13. Further, the “Activity in LDL uptake (relative to control)” value in test [2] (setting [5]) is listed as “+/+”. The “Activity in LDL uptake (relative to control)” value in test [2] (setting [6]) is “+/+”. For the same compound, in test [3], the “PCSK9 mRNA level at 10 uM (fold of control)” value was 0.87 ± 0.04 fold of control and the “Activity on PCSK9 mRNA reduction at 40 uM (fold of control)” value is recorded as 0.72 ± 0.10 fold of control.
`COc1cc2c(cc1OCC(=O)O)C1Cc3ccc(OC)c(OS(=O)(=O)c4ccccc4)c3CN1CC2` (centres unmarked) [Compound 144, 2-[3,10-dimethoxy-9-(phenylsulfonyloxy)-5,6,7,8,13,13a-hexahydroisoquinolino[3,2-a]isoquinolin-2-yloxy]acetic acid]: the fold induction at 10 µM in test [1] (10 uM) was 1.02 ± 0.09. Besides, the fold induction at 40 µM in test [1] (40 uM) was 2.69 ± 0.31. In addition, in test [3], the “PCSK9 mRNA level at 10 uM (fold of control)” value is on record as 0.99 ± 0.09 fold of control and the “Activity on PCSK9 mRNA reduction at 40 uM (fold of control)” value is 1.84 ± 0.15 fold of control.
In the case of `COc1ccc2c(c1)CCN1Cc3c(ccc(OC)c3OS(=O)(=O)c3ccccc3)CC21` (centres unmarked) [Compound 116, 3,10-Dimethoxy-5,6,7,8,13,13a-hexahydroisoquinolino[2,1-b]isoquinolin-9-yl benzenesulfonate], the fold induction at 10 µM in test [1] (10 uM) amounted to 1.41 ± 0.04. In addition, the fold induction at 40 µM in test [1] (40 uM) came to 7.19 ± 1.29. Besides, the “Activity in LDL uptake (relative to control)” value in test [2] (setting [5]) and in test [2] (setting [6]) was “+++/+++” in each case.
Take `COc1ccc2c(c1OS(=O)(=O)c1ccccc1)CN1CCc3cc(C)ccc3C1C2` (centres unmarked) [Compound 121, 10-Methoxy-3-methyl-5,6,7,8,13,13a-hexahydroisoquinolino[2,1-b]isoquinolin-9-yl benzenesulfonate]: the fold induction at 10 µM in test [1] (10 uM) is 3.56 ± 0.03. The fold induction at 40 µM in test [1] (40 uM) stood at 3.43 ± 0.81. The “Activity in LDL uptake (relative to control)” value in test [2] (setting [5]) is “+++”; in test [2] (setting [6]) it was “+”.
Consider `COc1ccc2c(c1)CCN1Cc3c(OS(=O)(=O)c4cccc(F)c4)ccc(Br)c3CC21` (centres unmarked) [Compound 149, 12-bromo-3-methoxy-5,6,7,8,13,13a-hexahydroisoquinolino[2,1-b]isoquinolin-9-yl 3-fluorobenzenesulfonate], for which the “Activity in LDL uptake (relative to control)” value in test [2] (setting [5]) and in test [2] (setting [6]) was “+/+” each time.
For `COc1ccc2c(c1)CCN1Cc3c(cccc3OS(=O)(=O)c3cccc(F)c3)CC21` (centres unmarked) [Compound 150, 3-methoxy-5,6,7,8,13,13a-hexahydroisoquinolino[2,1-b]isoquinolin-9-yl 3-fluorobenzenesulfonate], the “Activity in LDL uptake (relative to control)” value is listed as “+” in test [2] (setting [5]) and “++” in test [2] (setting [6]).
Take `COc1ccc2c(c1OS(=O)(=O)c1cccc(F)c1)CN1CCc3cc4c(cc3C1C2)OCO4` (centres unmarked) [Compound 52, 10-methoxy-5,6,7,8,13,13a-hexahydro-2H-1,3-dioxolano[4,5-g]isoquinolino[3,2-a]isoquinolin-9-yl 3-fluorobenzenesulfonate]: the “Activity on LDLR mRNA expression (Fold of control)” value in test [4] is listed as 3.63 ± 0.17 Fold of control.
